{"source": "patent US12053465B2", "about": "“KCC2 expression enhancing compounds and uses thereof” (Whitehead Institute for Biomedical Research, priority 2017, dated 2024)", "key": {"[1]": {"tested_on": "KCC2 expression (KCC2-2A-luciferase reporter)", "test": "KCC2-2A-luciferase reporter compound screening with RTT KCC2 reporter neurons", "format": "cell-based, human", "details": "for B Score: MECP2-null RTT human KCC2 reporter neurons, LINCS, SMART, ICCB libraries, Luc/CTG normalized to in-plate DMSO, hit = B score >3; for KCC2 reporter activity in RTT neurons: RTT KCC2-2A-luciferase reporter neurons vs in-plate DMSO", "procedure,_shortened": "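MECP2-null RTT human neurons carrying a KCC2-2A-luciferase reporter, differentiated 4 weeks, were treated with library compounds at 10 μM for 1–2 weeks at 37 °C. Lysate luciferase was normalized to CellTiter-Glo ATP per well and expressed as fold change over in-plate DMSO. Hits were called at B score >3.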"}, "[2]": {"tested_on": "KCC2 expression", "test": "Western blot of KCC2 in cultured WT human neurons", "format": "cell-based", "details": "cultured WT human neurons (WIBR1); Western blot"}, "[3]": {"tested_on": "human RTT neurons", "test": "Gramicidin-perforated patch recording of EGABA in cultured human RTT neurons", "format": "cell-based"}, "[4]": {"tested_on": "human RTT neurons", "test": "Neuronal morphology analysis of cultured human RTT neurons", "format": "cell-based", "details": "for neurite complexity (Sholl analysis): vs DMSO- or MeBIO-treated", "excerpt": "Moreover, a reduction in the number or the strength of excitatory glutamatergic synapses in RTT neurons has been observed in postmortem RTT patient brain samples (30), mouse models of RTT (53), and human stem cell-derived RTT neurons (54). Electrophysiology recording was utilized to assess whether KEECs could rescue the deficits in EGABA and excitatory synaptic transmission of RTT neurons. […] We further investigated whether the beneficial effect of KEECs is a direct result of the increases in neuronal KCC2 gene expression. […] Deficits in a number of morphological measurements, including nuclei size and neurite complexity and branching, are hallmarks of RTT neurons (54-56). […] To validate the morphological measurements, electrophysiological measurements of the neuronal membrane capacitance (Cm), an indicator of neuronal cell size (57) that is reduced in RTT neurons, were conducted. […] Fluorescent images of randomly-selected neurons were acquired on a Nikon Eclipse Ti epifluorescence microscope equipped with 20× lens. Nucleus size analysis of DAPI-stained neuronal nucleus were performed with ImageJ. Sholl analysis and measurements of the total neurite length and branch points were performed with the Simple Neurite Tracer plugin of the ImageJ software. Morphological analyses were carried out with about 60 randomly-selected neurons per treatment group. Image acquisition and analysis were carried out by different researchers, and automated analysis software pipeline were utilized to reduce human bias."}}}
{"compound": "O=C(c1ccc(/C=C/c2n[nH]c3ccccc23)cc1)N1CCNCC1", "note": "[KW-2449, (E)-(4-(2-(1H-indazol-3-yl)vinyl)phenyl)(piperazin-1-yl)methanone]", "values": [{"measurement": "B Score", "setting": "[1]", "value": 5.45}, {"measurement": "KCC2 reporter activity in RTT neurons", "setting": "[1]", "value": "significant increase of KCC2 reporter activity"}, {"measurement": "KCC2 expression", "setting": "[2]", "value": "significant increase in KCC2 expression in a dose-dependent manner"}, {"measurement": "shift in EGABA", "setting": "[3]; RTT neurons transfected with KCC2 shRNA", "value": "failed to hyperpolarize the EGABA"}, {"measurement": "shift in EGABA", "setting": "[3]; cultured human RTT neurons, DMSO about −50 mV, WT −70 mV", "value": "significant hyperpolarizing shift in EGABA to levels comparable to WT neurons"}, {"measurement": "nucleus size", "setting": "[4]", "value": "significantly increase the nucleus size"}, {"measurement": "number of neurite branches", "setting": "[4]", "value": "significantly increase"}, {"measurement": "total neurite length", "setting": "[4]", "value": "significantly increase"}, {"measurement": "neurite complexity (Sholl analysis)", "setting": "[4]", "value": "significant increase in neurite complexity"}]}
{"compound": "O=C1Nc2cc(Br)ccc2/C1=C1/Nc2ccccc2/C1=N\\O", "note": "[BIO, (2Z,3E)-6′-bromo-3-(hydroxyimino)-[2,3′-biindolinylidene]-2′-one]", "values": [{"measurement": "B Score", "setting": "[1]", "value": 3.42}, {"measurement": "KCC2 reporter activity in RTT neurons", "setting": "[1]", "value": "significant increase of KCC2 reporter activity"}, {"measurement": "KCC2 expression", "setting": "[2]", "value": "significantly increased KCC2 expression"}, {"measurement": "nucleus size", "setting": "[4]", "value": "significantly increase the nucleus size"}, {"measurement": "number of neurite branches", "setting": "[4]", "value": "significantly increase"}, {"measurement": "total neurite length", "setting": "[4]", "value": "significantly increase"}, {"measurement": "neurite complexity (Sholl analysis)", "setting": "[4]", "value": "significant increase in neurite complexity"}]}
